Molecular target: T1, C. albicans γ-TuSC (γ-tubulin small complex; Spc97, Spc98, γ-tubulin/Tub4) (Candida albicans, UniProt O93807)
T1 construct: full-length, codon-optimized genes, expressed in SF21 insect cells; heterotetramer; N-terminal 91 (Spc97) and 149 (Spc98) residues not resolved; with Spindle pole body component (Spc97); Spindle pole body component (Spc98)
T1 sequence (O93807 1-502): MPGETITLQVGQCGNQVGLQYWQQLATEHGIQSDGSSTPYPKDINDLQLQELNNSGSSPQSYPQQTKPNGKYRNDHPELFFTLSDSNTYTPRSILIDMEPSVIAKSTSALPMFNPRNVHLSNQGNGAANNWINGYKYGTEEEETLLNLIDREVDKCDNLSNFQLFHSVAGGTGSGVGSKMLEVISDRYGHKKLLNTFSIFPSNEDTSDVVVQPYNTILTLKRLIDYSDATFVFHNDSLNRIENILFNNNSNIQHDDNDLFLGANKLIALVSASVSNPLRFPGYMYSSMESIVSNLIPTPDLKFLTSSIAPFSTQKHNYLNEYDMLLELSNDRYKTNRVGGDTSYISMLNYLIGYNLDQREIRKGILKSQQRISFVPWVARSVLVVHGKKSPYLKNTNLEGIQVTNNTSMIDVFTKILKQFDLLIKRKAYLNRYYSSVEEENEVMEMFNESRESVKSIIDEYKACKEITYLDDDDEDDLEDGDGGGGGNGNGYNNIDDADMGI
T1 sequence (Q59PZ2 1-871 partner): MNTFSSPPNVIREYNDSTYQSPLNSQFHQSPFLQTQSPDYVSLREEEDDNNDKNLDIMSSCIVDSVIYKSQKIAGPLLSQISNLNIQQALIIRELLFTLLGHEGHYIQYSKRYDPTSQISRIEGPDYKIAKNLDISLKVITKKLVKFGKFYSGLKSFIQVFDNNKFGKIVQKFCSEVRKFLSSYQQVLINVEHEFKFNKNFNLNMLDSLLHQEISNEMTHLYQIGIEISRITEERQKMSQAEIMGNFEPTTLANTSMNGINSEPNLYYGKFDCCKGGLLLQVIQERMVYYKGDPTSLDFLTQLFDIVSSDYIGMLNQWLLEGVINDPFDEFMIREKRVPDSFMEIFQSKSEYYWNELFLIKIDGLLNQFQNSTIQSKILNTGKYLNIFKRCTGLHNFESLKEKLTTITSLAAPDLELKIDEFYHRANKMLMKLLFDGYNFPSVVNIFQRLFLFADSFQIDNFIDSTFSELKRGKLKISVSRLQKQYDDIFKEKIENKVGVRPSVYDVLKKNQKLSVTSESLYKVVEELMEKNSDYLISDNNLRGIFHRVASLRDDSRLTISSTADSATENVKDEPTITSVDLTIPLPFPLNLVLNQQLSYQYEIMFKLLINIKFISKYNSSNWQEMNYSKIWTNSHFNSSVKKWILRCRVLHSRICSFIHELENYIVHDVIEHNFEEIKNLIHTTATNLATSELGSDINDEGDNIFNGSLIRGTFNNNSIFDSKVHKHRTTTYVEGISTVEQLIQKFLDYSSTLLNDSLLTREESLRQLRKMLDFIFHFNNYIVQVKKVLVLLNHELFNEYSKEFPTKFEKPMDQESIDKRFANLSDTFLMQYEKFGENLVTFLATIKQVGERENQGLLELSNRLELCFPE
T1 sequence (A0A1D8PS42 1-785 partner): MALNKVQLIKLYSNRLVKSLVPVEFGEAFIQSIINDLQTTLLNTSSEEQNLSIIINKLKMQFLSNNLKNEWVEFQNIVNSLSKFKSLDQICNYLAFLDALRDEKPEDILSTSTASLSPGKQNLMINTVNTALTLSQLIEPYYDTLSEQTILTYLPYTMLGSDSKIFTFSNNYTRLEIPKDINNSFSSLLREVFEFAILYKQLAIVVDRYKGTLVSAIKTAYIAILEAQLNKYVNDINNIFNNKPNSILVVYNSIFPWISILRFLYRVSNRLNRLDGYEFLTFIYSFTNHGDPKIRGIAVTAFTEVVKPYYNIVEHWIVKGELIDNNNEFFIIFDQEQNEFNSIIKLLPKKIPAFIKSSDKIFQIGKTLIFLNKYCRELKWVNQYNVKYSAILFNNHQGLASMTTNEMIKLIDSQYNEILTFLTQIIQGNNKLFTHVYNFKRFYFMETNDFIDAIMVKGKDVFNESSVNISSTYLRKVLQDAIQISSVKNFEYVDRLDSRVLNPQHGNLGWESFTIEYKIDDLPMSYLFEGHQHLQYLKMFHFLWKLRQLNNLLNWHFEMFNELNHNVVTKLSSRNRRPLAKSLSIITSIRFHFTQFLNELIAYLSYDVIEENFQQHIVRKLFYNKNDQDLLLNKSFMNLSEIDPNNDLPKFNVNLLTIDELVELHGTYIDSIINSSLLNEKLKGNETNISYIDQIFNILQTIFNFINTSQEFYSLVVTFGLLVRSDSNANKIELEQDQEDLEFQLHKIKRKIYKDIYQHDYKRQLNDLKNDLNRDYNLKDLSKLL
Assay: cryo-EM structure ([…] Å)
Settings: co-purified nucleotide, none added; nucleotide-binding pocket of γ-tubulin; assigned from density lacking γ-phosphate; Table 1 lists 0 ligands in the refined model

Nc1nc2c(ncn2[C@@H]2O[C@H](COP(=O)(O)OP(=O)(O)O)[C@@H](O)[C@H]2O)c(=O)[nH]1 [GDP]
cryo-EM structure (3.6 Å): Our cryo-EM density of the C. albicans γ-TuSC indicates binding of GDP, rather than GTP

From publication PMC7658347, “The cryo-EM structure of a γ-TuSC elucidates architecture and regulation of minimal microtubule nucleation systems” (Nature Communications, 2020)
